Test results reported in patent publication US20030059852A1, “Modulation of integrin-mediated signal transduction” (COR Therapeutics, Inc., priority 1995, published 2003).

Assays:
[1] = tested on: platelets; test: Platelet aggregation induced by agonists; type: cell-based, human
Procedure: (§1) Blood from healthy volunteers was collected into ⅙^th volume of 85 mM sodium citrate, 111 mM dextrose and 71 mM citric acid supplemented with 50 ng/ml PGI2 and 0.6 U/ml apyrase. After centrifugation of the blood at 160× g for 20 minutes the platelet rich plasma was removed and subjected to further centrifugation at 730× g for 10 minutes to sediment the platelets. Platelets were then resuspended in 13 mM trisodium citrate, 120 mM NaCl and 30 mM dextrose pH 7.0 and washed x 2 with this buffer. The platelets were then resuspended in 12 mM NaHCO3, 138 mM NaCl, 5.5 mM dextrose, 2.9 mM KCl, 10 mM Hepes, 1 mM CaCl2, 0.3 U/ml apyrase and allowed to recover for 1 hour at 37° C. Resting platelets were activated by the addition of 1 nM thrombin with stirring until aggregates were visible (1-3 minutes).
Additional experiments have been performed using a 2-D gel electrophoresis protocol and have yielded further information on the tyrosine phosphorylation of GPIIIa (FIG. 3). GPIIIa tyrosine phosphorylation can be observed in platelets induced to aggregate using agonists other than thrombin. […] In all cases platelet aggregation appears to be a prerequisite for GPIIIa tyrosine phosphorylation.

[2] = tested on: GP IIIa (β3); test: In vivo tyrosine phosphorylation of GPIIIa, 2-D gel electrophoresis and anti-phosphotyrosine immunoblotting; type: cell-based, human
Procedure: as §1, with “Resting platelets were activated by the addition of 1 nM thrombin with stirring until aggregates were visible (1-3 minutes).” left out
330 μl of 3× non-reducing sample buffer containing 1 mM sodium vanadate was added to 1 ml of control or thrombin-aggregated platelets. […] This membrane was then immunoblotted with anti-phosphotyrosine antibodies and the relative amount of phosphorylated GPIIIa was determined by densitometry for both control and thrombin-aggregated samples. […]
However, a three to six fold enhancement of phosphorylation of GPIIIa was observed when platelets were lysed in a high concentration of SDS and the proteins immediately separated by 2-D gel electrophoresis prior to transfer to a nitrocellulose membrane, and immunoblotting to detect phosphorylated proteins with phosphotyrosine antibodies and with a GPIIIa antibody to quantitate GPIIIa. […]

Nc1ncnc2c1ncn2[C@@H]1O[C@H](COP(=O)(O)OP(=O)(O)O)[C@@H](O)[C@H]1O [ADP]
platelet aggregation [1]: does not induce platelet aggregation | Aggregation ([1]; platelets stimulated with the indicated agonist): no | GPIIIa tyrosine phosphorylation ([2]; 2-D gel electrophoresis protocol): no increase | β3 Phosphorylation ([2]; platelets stimulated with the indicated agonist, 2-D gel, anti-phosphotyrosine immunoblotting): no
